# According to patent US20250282818A1, “SYRBACTIN MACROLACTAMS AND UNNATURAL ANALOGS AS PROTEASOME INHIBITORS FOR THE TREATMENT OF MULTIPLE MYELOMA AND CHEMOENZYMATIC SYNTHESIS THEREOF” (UNIVERSITY OF FLORIDA RESEARCH FOUNDATION,INCORPORATED, priority 2022, published 2025):
# Entries after “also recorded” stand apart in the source; their conditions may differ.
# How the values were obtained:
# [1] = tested on: RPMI 8226 cells; test: RPMI8226 cytotoxicity screening (WST-1); type: cell-based, human; settings: for cytotoxicity / activity compared with the natural product, in words: 30 nM and 100 nM compound concentration; for potency compared with parent natural product 1 in screening (FIG. 6A, 6B): 30 nM and 100 nM, cytotoxicities track with proteasome inhibition at 30 nM
# Experimental: Cellular assays were performed with human multiple myeloma cell line RPMI 8226. First, relative inhibition of proteasome subunits β5 and β2 for all analogs and the natural product was measured at 30 nM compound concentration. Following incubation of the analogs in cell culture for 6 hours, cells were lysed and fluorogenic subunit-specific peptide substrates Suc-LLVY-AMC (β5) or Ac-RLR-AMC (β2) were incubated with the lysates, and fluorescence readings provided relative proteasome activity levels with respect to DMSO (FIG. 6A). Next, cytotoxicity screening was performed at 30 nM and 100 nM concentrations for better coverage of dynamic range (FIG. 6B). […] Therefore, the improved cytotoxicity of phenyl cepafungin 50 likely results from a more pronounced loss of β5 function in RPMI 8226 cells. This drastic increase in proteasome inhibition may be due to pi-stacking of the lipid tail phenyl ring with the β6 subunit residues Tyr106 and/or Tyr5. The β2 subunit-bound natural product has residues Tyr102 and Phe103 on the adjacent β3 subunit oriented further away from the terminal lipid methyl groups, and presumably would not facilitate pi-stacking to the extent possible at the adjacent β6 subunit (see FIG. 4, FIG. 9). […] These combined modifications were made in hopes that the effects of both substitutions would be additive.
# […] Toxicity was determined using the WST-1 assay (Roche) according to the protocol of the manufacturer. (n=3)
# [2] = tested on: RPMI 8226 cells; test: RPMI 8226 cytotoxicity EC50 measurements (WST-1); type: cell-based, human; settings: RPMI 8226, 48 hours
# Experimental: RPMI 8226 cells were seeded in a 96-well plate (20,000 cells/well) in cell culture media supplemented with indicated compounds (1,000× stock in DMSO) or DMSO and cultured for 48 hours. Toxicity was determined using the WST-1 assay (Roche) according to the protocol of the manufacturer. (n=3)
# Cytotoxicity of phenyl cepafungin (50) and hybrid analog (S39) in RPMI 8226 RPMI 8226 cells were seeded in a 96-well plate (20,000 cells/well) in cell culture media supplemented with indicated compounds (1,000× stock in DMSO) or DMSO and cultured for 48 hours. Toxicity was determined using the WST-1 assay (Roche) according to the protocol of the manufacturer. (n=3)
# [3] = molecular target: T1, proteasome subunit β5 (Homo sapiens, UniProt P28074); test: Proteasome inhibition IC50 measurements in RPMI 8226 cells, substrate Suc-LLVY-AMC (β5); type: cell-based; settings: β5, RPMI 8226 cells
# T1 construct: Cells were then collected and lysed; endogenous in cells; host or cells: RPMI 8226
# Excerpt: Our preliminary series of analogs (FIG. 3), including the natural product glidobactin A (2), were synthesized by largely the same route (FIG. 2).^13 Desoxycepafungin (38) was synthesized from Boc-Lys(Boc)-OH to assess the role of the macrocycle hydroxylation in 1 towards proteasome inhibition. The saturated cepafungin analog 39 was designed to address the possible role of rigidity in the tail fragment induced by the diene seen in many natural cepafungins and glidobactins. An analog bearing unsaturation at its macrocyclic lysine was envisioned to provide a head-to-head comparison between the cepafungin and syringolin A (4) macrocyclic core. […] Proteasome subunit β5 IC50 values were determined in situ in RPMI 8226 cells (FIG. 3). In close agreement with prior measurement of β5 IC50 for natural 1 and 2 in purified yeast proteasome,^8 in our hands the additional branching methyl in 1 indeed leads to ca. 5-fold improved IC50 compared to 2 in RPMI 8226 cells. […] Likewise, saturation of the fatty acid fragment in 39 causes ca. 14-fold decrease in β5 inhibition. This preliminary series of analogs highlighted that the macrocyclic hydroxylation, fatty acid unsaturation, and terminal lipid functionality are critical for potent proteasome inhibitory activity.
# Cellular assays were performed with human multiple myeloma cell line RPMI 8226. First, relative inhibition of proteasome subunits β5 and β2 for all analogs and the natural product was measured at 30 nM compound concentration. Following incubation of the analogs in cell culture for 6 hours, cells were lysed and fluorogenic subunit-specific peptide substrates Suc-LLVY-AMC (β5) or Ac-RLR-AMC (β2) were incubated with the lysates, and fluorescence readings provided relative proteasome activity levels with respect to DMSO (FIG. 6A). Next, cytotoxicity screening was performed at 30 nM and 100 nM concentrations for better coverage of dynamic range (FIG. 6B). […] Therefore, the improved cytotoxicity of phenyl cepafungin 50 likely results from a more pronounced loss of β5 function in RPMI 8226 cells. This drastic increase in proteasome inhibition may be due to pi-stacking of the lipid tail phenyl ring with the β6 subunit residues Tyr106 and/or Tyr5. The β2 subunit-bound natural product has residues Tyr102 and Phe103 on the adjacent β3 subunit oriented further away from the terminal lipid methyl groups, and presumably would not facilitate pi-stacking to the extent possible at the adjacent β6 subunit (see FIG. 4, FIG. 9). […]
# RPMI 8226 cells were seeded in a 6-well plate (1,000,000 cells/well) in cell culture media supplemented with indicated compounds (1,000× stock in DMSO) or DMSO and cultured for 6 hours. […] The plates were incubated at 37° C. for one hour and fluorescence was read at A360ex/A460em. […]
smiles,measurement,setting,value
"CC(C)CCCCC/C=C/C=C/C(=O)N[C@H](C(=O)N[C@H]1C[C@@H](O)CCNC(=O)/C=C/[C@H](C)NC1=O)[C@H](O)C(C)C [compound 46, (2E,4E)-N-((2S,3R)-3-hydroxy-1-(((5S,8S,10S,E)-10-hydroxy-5-methyl-2,7-dioxo-1,6-diazacyclododec-3-en-8-yl)amino)-4-methyl-1-oxopentan-2-yl)-11-methyldodeca-2,4-dienamide]","cytotoxicity / activity compared with the natural product, in words",[1],approached the potency of the natural product
"CC(C)[C@H]1/C=C/C(=O)NCC[C@H](O)C[C@H](NC(=O)[C@@H](NC(=O)/C=C/C=C/CCCCCc2ccccc2)[C@@H](C)O)C(=O)N1 [S39, (2E,4E)-N-((2S,3R)-3-hydroxy-1-(((5S,8S,10S,E)-10-hydroxy-5-isopropyl-2,7-dioxo-1,6-diazacyclododec-3-en-8-yl)amino)-1-oxobutan-2-yl)-10-phenyldeca-2,4-dienamide]",EC50,"[2]; Homo sapiens, WST-1",4.5 nM
same,"cytotoxicity EC50 compared with natural product and 50, in words",[2],significantly more potent than the natural product; also recorded: its cytotoxicity did not surpass that of 50
"C[C@H]1/C=C/C(=O)NCC[C@H](O)C[C@H](NC(=O)[C@@H](NC(=O)/C=C/C=C/CCCCCC(C)(C)C)[C@@H](C)O)C(=O)N1 [compound 47, (2E,4E)-N-((2S,3R)-3-hydroxy-1-(((5S,8S,10S,E)-10-hydroxy-5-methyl-2,7-dioxo-1,6-diazacyclododec-3-en-8-yl)amino)-1-oxobutan-2-yl)-11,11-dimethyldodeca-2,4-dienamide]","cytotoxicity / activity compared with the natural product, in words",[1],improved cytotoxicity relative to 1
same,"potency compared with parent natural product 1 in screening (FIG. 6A, 6B)",[1],more potent than the parent natural product 1
"CC(C)CCCCC/C=C/C=C/C(=O)N[C@H](C(=O)N[C@H]1C[C@@H](O)CCNC(=O)/C=C/[C@H](C(C)C)NC1=O)[C@@H](C)O [compound 43, (2E,4E)-N-((2S,3R)-3-hydroxy-1-(((5S,8S,10S,E)-10-hydroxy-5-isopropyl-2,7-dioxo-1,6-diazacyclododec-3-en-8-yl)amino)-1-oxobutan-2-yl)-11-methyldodeca-2,4-dienamide]","cytotoxicity / activity compared with the natural product, in words",[1],slightly greater cytotoxicity than the natural product
same,"potency compared with parent natural product 1 in screening (FIG. 6A, 6B)",[1],more potent than the parent natural product 1
"C[C@H]1/C=C/C(=O)NCC[C@H](O)C[C@H](NC(=O)[C@@H](NC(=O)/C=C/C=C/CCCCCC2CCCCC2)[C@@H](C)O)C(=O)N1 [compound 49, (2E,4E)-10-cyclohexyl-N-((2S,3R)-3-hydroxy-1-(((5S,8S,10S,E)-10-hydroxy-5-methyl-2,7-dioxo-1,6-diazacyclododec-3-en-8-yl)amino)-1-oxobutan-2-yl)deca-2,4-dienamide]","cytotoxicity / activity compared with the natural product, in words",[1],roughly similar activity as the natural product
"CC[C@H](NC(=O)/C=C/C=C/CCCCCC(C)C)C(=O)N[C@H]1C[C@@H](O)CCNC(=O)/C=C/[C@H](C)NC1=O [compound 44, (2E,4E)-N—((S)-1-(((5S,8S,10S,E)-10-hydroxy-5-methyl-2,7-dioxo-1,6-diazacyclododec-3-en-8-yl)amino)-1-oxobutan-2-yl)-11-methyldodeca-2,4-dienamide]","cytotoxicity / activity compared with the natural product, in words",[1],Thr residue next to the cepafungin macrocycle appears to be favored over the ethyl sidechain of desoxy-Thr analog 44
"CC(C)CCCCC/C=C/C=C/C(=O)N[C@H](C(=O)N[C@H]1CC(=O)CCNC(=O)/C=C/[C@H](C)NC1=O)[C@@H](C)O [compound 42, (2E,4E)-N-((2S,3R)-3-hydroxy-1-(((5S,8S,E)-5-methyl-2,7,10-trioxo-1,6-diazacyclododec-3-en-8-yl)amino)-1-oxobutan-2-yl)-11-methyldodeca-2,4-dienamide]","cytotoxicity / activity compared with the natural product, in words",[1],potency approaching that of the natural product
"CC(C)CCCCC/C=C/C=C/C(=O)N[C@H](C(=O)N[C@H]1C[C@H](O)CCNC(=O)/C=C/[C@H](C)NC1=O)[C@@H](C)O [compound 40, (2E,4E)-N-((2S,3R)-3-hydroxy-1-(((5S,8S,10R,E)-10-hydroxy-5-methyl-2,7-dioxo-1,6-diazacyclododec-3-en-8-yl)amino)-1-oxobutan-2-yl)-11-methyldodeca-2,4-dienamide]","cytotoxicity / activity compared with the natural product, in words",[1],nearly inactive at both concentrations
"CC(C)CCCCC/C=C/C=C/C(=O)N[C@H](C(=O)N[C@H]1CCCCNC(=O)/C=C/[C@H](C)NC1=O)[C@@H](C)O [compound 38, Desoxycepafungin]",fold higher IC50 than 1,[3],ca. 11 fold
"CC(C)CCCCC/C=C/C=C/C(=O)N[C@H](C(=O)N[C@@H]1C(=O)N[C@@H](C)/C=C/C(=O)NCCC[C@@H]1O)[C@@H](C)O [compound 41, (2E,4E)-N-((2S,3R)-3-hydroxy-1-(((5S,8S,9S,E)-9-hydroxy-5-methyl-2,7-dioxo-1,6-diazacyclododec-3-en-8-yl)amino)-1-oxobutan-2-yl)-11-methyldodeca-2,4-dienamide]","cytotoxicity / activity compared with the natural product, in words",[1],nearly inactive at both concentrations
"C[C@H]1/C=C/C(=O)NCC[C@H](O)C[C@H](NC(=O)[C@@H](NC(=O)/C=C/C=C/CCCCCC2CCCC2)[C@@H](C)O)C(=O)N1 [compound 48, (2E,4E)-10-cyclopentyl-N-((2S,3R)-3-hydroxy-1-(((5S,8S,10S,E)-10-hydroxy-5-methyl-2,7-dioxo-1,6-diazacyclododec-3-en-8-yl)amino)-1-oxobutan-2-yl)deca-2,4-dienamide]","cytotoxicity / activity compared with the natural product, in words",[1],improved cytotoxicity relative to 1
same,"potency compared with parent natural product 1 in screening (FIG. 6A, 6B)",[1],more potent than the parent natural product 1
"C[C@H]1/C=C/C(=O)NCC[C@H](O)C[C@H](NC(=O)[C@@H](NC(=O)/C=C/C=C/CCCCCC(F)(F)F)[C@@H](C)O)C(=O)N1 [compound 51, (2E,4E)-11,11,11-trifluoro-N-((2S,3R)-3-hydroxy-1-(((5S,8S,10S,E)-10-hydroxy-5-methyl-2,7-dioxo-1,6-diazacyclododec-3-en-8-yl)amino)-1-oxobutan-2-yl)undeca-2,4-dienamide]","cytotoxicity / activity compared with the natural product, in words",[1],essentially inactive at both concentrations tested
"CC(C)CCCCC/C=C/C=C/C(=O)N[C@H](C(=O)N[C@H]1C[C@@H](O)CCNC(=O)/C=C/[C@H](C)NC1=O)[C@H](O)c1ccccc1 [compound 45, (2E,4E)-N-((1R,2S)-1-hydroxy-3-(((5S,8S,10S,E)-10-hydroxy-5-methyl-2,7-dioxo-1,6-diazacyclododec-3-en-8-yl)amino)-3-oxo-1-phenylpropan-2-yl)-11-methyldodeca-2,4-dienamide]","cytotoxicity / activity compared with the natural product, in words",[1],substantially weaker
